{"source": "patent US11274332B2", "about": "“Methods of administering 3,4-diaminopyridine” (SERB SA, priority 2011, dated 2022)", "tested_on": "human hepatocytes", "assay": "In vitro metabolism of 14C-amifampridine in human hepatocytes (Example 3)", "format": "in vitro ADME", "conditions": "multiple donors", "experimental": "The objective of this hepatocyte study was to determine the extent of metabolism, complete metabolic profile and metabolite characterization of amifampridine phosphate in several species with ^14C-amifampridine phosphate for a cross species comparison. The following procedures were used to study the metabolism in rat (Example 1), dog (Example 2), and human hepatocytes (Example 3).\nThe cryopreserved hepatocytes were removed from storage, quickly thawed in a 37° C. water bath for 1 to 2 min, and transferred to a 50 ml tube containing pre-warmed InVitroGRO HT medium (Celsis Inc., Baltimore). The cell suspension was mixed by gentle inversion and the cells were pelleted by centrifugation at 50 to 75×g for 5 min. The supernatant medium was removed and the cells were resuspended in Williams' Medium E. Hepatocyte viability was assessed by using trypan blue exclusion. Hepatocyte density was determined by counting cells with a hemocytometer and the density was adjusted with Williams' Medium E to achieve a final density of 1,000,000 cells/mL. […] The supernatant medium was removed and the cells were resuspended in cold Williams' Medium E. The cell density was then determined using a hemocytometer and the density was adjusted with Williams' Medium E to achieve a final density of 1,000,000 cells/mL. […]", "data": [{"smiles": "Nc1ccncc1N", "note": "[3,4-DAP, 3,4-diaminopyridine]", "values": [{"measurement": "formation of single major acetylated amifampridine metabolite", "result": "variable"}]}]}
